Experimental findings from patent US5116829A, “Steroid compounds” (Kao Corporation, priority 1990, dated 1992) are described below.

For one data set, the system named is thymus. Description: Systemic side effects: thymus weight. The format is in vivo, ddY male mice. The settings on record: 2 mM in peanut oil, s.c., two times at 24 hour interval; Means ± S.E. Here is the method:
Systemic side effects of the compound of the present invention were evaluated according to the following method.
Suspensions of the test compounds (2 mM) in peanut oil were subcutaneously injected into the back of ddY male mice (weight: about 30 gm), 10 mice consisting of a test group, two times, once a day at a 24 hour interval. After 24 hours from the last injection, the mice were sacrificed to extract the thymus and to weigh its weight. For the control group only peanut oil was administered. The results are shown in […]

The next data set concerns edema of rat auricle. Nature of the data set: Anti-inflammatory activity (1): croton oil-induced auricle edema. The format is in vivo, Wistar male rats. The settings on record: 10^-3 M, 800 μl/auricle, 15 seconds, weighed after 6 hours, read-out: Edema inhibitory rate (%). Here is the method: Test Method of Anti-inflammatory Activity (1) […] Wistar male rats, age 5 weeks, each group consisting of 5, were served for the test. The test samples and an inflammation-inducingbase material (control) were infiltrated into circular […]) fixed onto specially prepared tweezers and the right auricles of the animals were put between the tweezers to apply the samples (800 μl/auricle) for 15 seconds at a constant pressure of 500 gw. After 6 hours, the both auricles were punched (.phi. 9 mm) and weighed. An edema inhibitory rate determined by the following equation was taken as an index of the anti-inflammatory activity of the steroid samples. Edema inhibitory rate (%)=100-Y/Z×100 wherein Y is the weight difference (mg) of the right auricle to which the sample drug was applied and the untreated left auricle, and Z is the weight difference (mg) of the right auricle of the rat to which the inflammation-inducing base material was applied and the untreated left auricle.

Another data set relates to granuloma. Nature of the data set: Anti-inflammatory activity (2): granuloma around embedded filter paper. Format: in vivo, Wistar male rats. As to conditions: 10^-2 M, 50 μl/paper, after 6 days; for inhibition at 10000 µM: Rattus norvegicus, 144 h, read-out: Granulating Inhibitory Rate (%). The text has this:
Test Method of Anti-inflammatory Activity (2) Wistar male rats, age 5 weeks, each group consisting of 5-8 rats, were served for the test. […] The paper was embedded into the right back of the rats. Into the left back was embedded an untreated antibiotic test filter paper. After 6 days, the animals were sacrificed by bleeding and the backs were incised to extract each granuloma formed around the filter. The granuloma was dried and weighed. To the right backs of the control group antibiotic test filter papers infiltrated with 50 μl/paper of ethanol and dried were embedded.

Data set [1] in a line: Acute toxicity (oral administration). Details: species or system ICR mice (male). The settings on record: mouse, in vivo, 14 days after administration, read-out: Viability (%). Here is the method: Acute toxicity (oral administration) of the compound of the present invention was evaluated according to the following method. […]
The test system of data set [2] is eosinophiles infiltration. Nature of the data set: Anti-allergic activity: FMLP-induced eosinophiles infiltration in trachea. The format is in vivo, guinea pigs (male). As to conditions: positive control; after 4 hours (so in the source). Here is the method: Test Method of Anti-allergic Activity
To tracheas around the neck of guinea pigs (male; weight 200-300 gm) exposed under anesthesia with Nembutal (0.05 ml/animal, i.p.) were injected FMLP (10^-4 M), which is an inflammation-inducing compound, dissolved in 1% dimethylsulfoxide solution in physiological saline, individually o together with the test compound with a 26 guage needle. For the negative control, only dimethylsulfoxide was injected, and for the positive control betamethasone was administered. […] Eosinophiles infiltrated into the upper, middle, and lower parts of the trachea were counted by microscope. Numbers of eosinophiles found in tracheas to which the test compound was injected were compared with those to which FMLP was independently injected.

Read-outs that look alike come from different tables or passages of the source.

For `C[C@]12CCC(=O)C=C1CC[C@@H]1[C@@H]2[C@@H](O)C[C@@]2(C)[C@H]1CC[C@]2(O)C(=O)CO` [Hydrocortisone, hydrocortisone, reference compound], the “Thymus weight/10 gm body weight” value in the data set with thymus was 20.8 ± 2.1 mg.

As to `CSCCC(NC=O)C(=O)SCC(=O)[C@@]1(O)[C@H](C)C[C@H]2[C@@H]3CC(F)C4=CC(=O)C=C[C@]4(C)[C@@]3(F)[C@H](O)C[C@@]21C` (stereo partly drawn) [Compound No. 5, 6,9-Difluoro-21-[2-(formylamino)-4-methylthio-1-oxobutylthio]-11α,17-dihydroxy-16α-methylpregna-1,4-diene-3,20-dione], the inhibition at 1000 µM in the data set with edema of rat auricle worked out at 74%.

As to `CSCC[C@H](NC=O)C(=O)SCC(=O)[C@@]12OC(C)(C)O[C@@H]1C[C@H]1[C@@H]3CCC4=CC(=O)C=C[C@]4(C)[C@@]3(F)[C@@H](O)C[C@@]12C` [Compound No. 3, 9-Fluoro-21-[2-(formylamino)-4-methylthio-1-oxobutylthio]-11β-hydroxy-16α,17α-isopropylidenedioxypregna-1,4-diene-3,20-dione], the inhibition at 1000 µM in the data set on edema of rat auricle came out at 74%.

In the case of `CSCC[C@H](NC=O)C(=O)SCC(=O)[C@@]1(O)[C@@H](C)C[C@H]2[C@@H]3CCC4=CC(=O)C=C[C@]4(C)[C@@]3(F)[C@@H](O)C[C@@]21C` [Compound No. 1, 9-Fluoro-21-[2-(formylamino)-4-methylthio-1-oxobutylthio]-11β,17-dihydroxy-16β-methylpregna-1,4-diene-3,20-dione], in the data set with edema of rat auricle, the inhibition at 1000 µM was found to be 44%. The “Dry weight of ganuloma” value in the data set with granuloma turned out to be 10.7 mg. Moreover, the inhibition at 10000 µM in the data set with granuloma stood at 47.7%. Besides, in the data set with thymus, the “Thymus weight/10 gm body weight” value worked out at 23.4 ± 0.3 mg. Besides, the survival at 336 h in data set [1] (dose 1.7 (mg/kg)), in data set [1] (dose 3.3 (mg/kg)) and in data set [1] (dose 5 (mg/kg)) was 100% each time.

Take `CCCCC(=O)O[C@]1(C(=O)CO)[C@@H](C)C[C@H]2[C@@H]3CCC4=CC(=O)C=C[C@]4(C)[C@@]3(F)[C@@H](O)C[C@@]21C` [Betamethasone 17-valerate, betamethasone 17-valerate, reference compound]: in the data set with edema of rat auricle, the inhibition at 1000 µM is 34%. The “Dry weight of ganuloma” value in the data set on granuloma stood at 15.0 mg. Moreover, in the data set with granuloma, the inhibition at 10000 µM came to 26.6%. Also, the survival at 336 h in data set [1] (dose 1.7 (mg/kg)) came to 100%; in data set [1] (dose 3.3 (mg/kg)), 100%; in data set [1] (dose 5 (mg/kg)), 50%.

Take `CCCCC(=O)O[C@]1(C(=O)CSC(=O)[C@H](CCSC)NC=O)[C@@H](C)C[C@H]2[C@@H]3CCC4=CC(=O)C=C[C@]4(C)[C@@]3(F)[C@@H](O)C[C@@]21C` [Compound No. 6, 9-Fluoro-21-[2-(formylamino)-4-methylthio-1-oxobutylthio]-11β-hydroxy-16β-methyl-17-(1-oxopentyloxy)-pregna-1,4-diene-3,20-dione]: in the data set with granuloma, the “Dry weight of ganuloma” value turned out to be 7.4 mg and the inhibition at 10000 µM came to 63.9%.

As for `C[C@H]1C[C@H]2[C@@H]3CCC4=CC(=O)C=C[C@]4(C)[C@@]3(F)[C@@H](O)C[C@]2(C)[C@@]1(O)C(=O)CO` [Betamethasone, betamethasone], in data set [2], the “eosinophiles infiltration inhibitory effect” value is given as “only a small effect”. In addition, the “Thymus weight/10 gm body weight” value in the data set on thymus is 15.4 ± 1.4 mg.
